Target: human full-length MKNK1 (Homo sapiens (Human), UniProt Q9BUB5, T344D)
Assay: MKNK1 kinase high ATP assay (TR-FRET)
Assay type: biochemical
Details: high ATP (2 mM final), 15 min preincubation with enzyme
How it was run: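 GST-tagged full-length MKNK1 (T344D), insect-cell expressed, preincubated 15 min at 22 °C with compound, then reacted 30 min at 22 °C with 2 mM ATP and 0.06 μM biotinylated peptide in HEPES pH 7.5 buffer (final concentrations). Phospho-peptide detected by TR-FRET (665/620 nm ratio), normalised to no-inhibitor and no-enzyme controls.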

Chain of human full-length MKNK1 (Q9BUB5 other isoform, or with tags, fused parts or gaps T344D): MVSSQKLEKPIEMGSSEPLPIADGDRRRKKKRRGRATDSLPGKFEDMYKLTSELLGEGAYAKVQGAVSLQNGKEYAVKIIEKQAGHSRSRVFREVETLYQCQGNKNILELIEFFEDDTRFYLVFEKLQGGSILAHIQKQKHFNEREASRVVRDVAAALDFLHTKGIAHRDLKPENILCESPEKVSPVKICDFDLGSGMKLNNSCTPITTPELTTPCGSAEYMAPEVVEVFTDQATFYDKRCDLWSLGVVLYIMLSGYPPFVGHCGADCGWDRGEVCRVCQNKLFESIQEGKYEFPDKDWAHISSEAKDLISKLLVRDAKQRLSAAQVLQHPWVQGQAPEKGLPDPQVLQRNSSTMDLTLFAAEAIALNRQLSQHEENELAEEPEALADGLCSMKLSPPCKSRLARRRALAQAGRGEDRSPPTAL

| SMILES | IC50 [nM] |
| --- | --- |
| COc1cc2[nH]c(=O)sc2cc1Nc1ncnc2sc3c(c12)CCC(C(=O)O)C3 (centres unmarked) [Example 33, 4-[(5-Methoxy-2-oxo-2,3-dihydro-1,3-benzothiazol-6-yl)amino]-5,6,7,8-tetrahydro[1]benzothieno[2,3-d]pyrimidine-7-carboxylic acid] | 42 |
| O=C(C1CCc2c(sc3ncnc(Nc4ccc5[nH]c(=O)sc5c4)c23)C1)N1CCN(Cc2ccccc2)CC1 (centres unmarked) [Example 38, 6-({7-[(4-benzylpiperazin-1-yl)carbonyl]-5,6,7,8-tetrahydro[1]benzothieno[2,3-d]pyrimidin-4-yl}amino)-1,3-benzothiazol-2(3H)-one] | 44 |

Source: patent US9296757B2, “Substituted benzothienopyrimidines” (BAYER PHARMA AKTIENGESELLSCHAFT, priority 2012, dated 2016)
